Target: T1, Fatty-acid amide hydrolase 1 (Homo sapiens, UniProt O00519)
T1 sequence (O00519 whole entry): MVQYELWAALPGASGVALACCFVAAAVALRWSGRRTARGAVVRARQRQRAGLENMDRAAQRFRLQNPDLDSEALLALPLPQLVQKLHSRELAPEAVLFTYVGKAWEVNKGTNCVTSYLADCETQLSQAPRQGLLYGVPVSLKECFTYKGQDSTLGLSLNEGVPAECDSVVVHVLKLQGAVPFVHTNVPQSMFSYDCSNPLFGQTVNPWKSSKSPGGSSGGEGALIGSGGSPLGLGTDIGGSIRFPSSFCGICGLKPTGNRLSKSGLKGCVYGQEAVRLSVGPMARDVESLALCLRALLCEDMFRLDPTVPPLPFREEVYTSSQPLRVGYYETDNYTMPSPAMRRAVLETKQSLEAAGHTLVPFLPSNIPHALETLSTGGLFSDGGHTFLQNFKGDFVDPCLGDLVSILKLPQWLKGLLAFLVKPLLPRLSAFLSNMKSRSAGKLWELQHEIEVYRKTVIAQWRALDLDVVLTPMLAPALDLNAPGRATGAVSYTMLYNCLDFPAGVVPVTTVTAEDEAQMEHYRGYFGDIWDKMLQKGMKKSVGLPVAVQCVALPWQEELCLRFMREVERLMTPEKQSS
Assay: FAAH Inhibition Assay
Conditions: pH 9; 22 °C
Description: FAAH Inhibition Assay [3H]Ethanolamine produced from [3H]AEA hydrolysis was used to calculate FAAH activity and was measured by scintillation counting of the aqueous phase after extraction of the incubation mixture. Data were expressed as the percentage of [3H]-ethanolamine formed versus vehicle, after subtraction of the background radioactivity determined in the presence of arachidonyl trifluoromethyl ketone (ATFMK), an inhibitor of FAAH. IC50 values were determined using a four-parameter logistic equation for dose-response curves.

Row | Structure (SMILES) | IC50 [nM]
1 | CCOC(=O)CCCCCCCn1c(CC)nc(-c2ccccc2)c1-c1ccccc1 [ethyl 8-(2-ethyl-4,5-diphenyl-1H-imidazol-1-yl)octanoate] | 31
2 | CCOC(=O)C(CC)CCCCCn1c(C)nc(-c2ccccc2)c1-c1ccccc1 (centres undefined) [D, L mixtures] | 9900
3 | CCOC(=O)C(CCCCCn1c(C)nc(-c2ccccc2)c1-c1ccccc1)C(C)C (racemic) [D, L mixtures] | > 100000
4 | CCOC(=O)C(C)CCCCCn1c(C)nc(-c2ccccc2)c1-c1ccccc1 (racemic) [D, L mixtures] | 130
